In PubChem BioAssay (NCI):
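Dose response: 5 concentrations. Exposure: 48 h. Format: 96-well plates. Endpoint: linear interpolation; highest concentration if not reached. GI50 is the concentration that inhibits growth by half. At the TGI there is no net growth.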

Columns and labels:
Assay in all cases: growth of human tumour cells (NCI), 48 h
786-0 renal = system: 786-0 renal
A549 NSCLC = system: A549 NSCLC
ACHN renal = system: ACHN renal
BT-549 breast = system: BT-549 breast
CAKI-1 renal = system: CAKI-1 renal
CCRF-CEM leukemia = system: CCRF-CEM leukemia
COLO 205 colon = system: COLO 205 colon
DU-145 prostate = system: DU-145 prostate
EKVX NSCLC = system: EKVX NSCLC
HCC-2998 colon = system: HCC-2998 colon
HCT-116 colon = system: HCT-116 colon
HCT-15 colon = system: HCT-15 colon
HL-60(TB) leukemia = system: HL-60(TB) leukemia
HOP-62 NSCLC = system: HOP-62 NSCLC
HOP-92 NSCLC = system: HOP-92 NSCLC
HS 578T breast = system: HS 578T breast
HT29 colon = system: HT29 colon
IGROV1 ovarian = system: IGROV1 ovarian
K-562 leukemia = system: K-562 leukemia
KM12 colon = system: KM12 colon
LOX IMVI melanoma = system: LOX IMVI melanoma
M14 melanoma = system: M14 melanoma
MALME-3M melanoma = system: MALME-3M melanoma
MCF7 breast = system: MCF7 breast
MDA-MB-231 breast = system: MDA-MB-231 breast
MDA-MB-435 = system: MDA-MB-435
MOLT-4 leukemia = system: MOLT-4 leukemia
NCI-H226 lung = system: NCI-H226 lung
NCI-H23 lung = system: NCI-H23 lung
NCI-H460 lung = system: NCI-H460 lung
NCI-H522 lung = system: NCI-H522 lung
NCI/ADR-RES ovarian = system: NCI/ADR-RES ovarian
OVCAR-3 ovarian = system: OVCAR-3 ovarian
OVCAR-4 ovarian = system: OVCAR-4 ovarian
OVCAR-5 ovarian = system: OVCAR-5 ovarian
OVCAR-8 ovarian = system: OVCAR-8 ovarian
PC-3 prostate = system: PC-3 prostate
RPMI-8226 leukemia = system: RPMI-8226 leukemia
RXF 393 renal = system: RXF 393 renal
SF-268 CNS = system: SF-268 CNS
SF-295 CNS = system: SF-295 CNS
SF-539 CNS = system: SF-539 CNS
SK-MEL-2 melanoma = system: SK-MEL-2 melanoma
SK-MEL-28 melanoma = system: SK-MEL-28 melanoma
SK-MEL-5 melanoma = system: SK-MEL-5 melanoma
SK-OV-3 ovarian = system: SK-OV-3 ovarian
SN12C renal = system: SN12C renal
SNB-19 CNS = system: SNB-19 CNS
SNB-75 CNS = system: SNB-75 CNS
SR leukemia = system: SR leukemia
SW-620 colon = system: SW-620 colon
T-47D breast = system: T-47D breast
TK-10 renal = system: TK-10 renal
U251 CNS = system: U251 CNS
UACC-257 melanoma = system: UACC-257 melanoma
UACC-62 melanoma = system: UACC-62 melanoma
UO-31 renal = system: UO-31 renal
A498 renal = system: A498 renal

COc1cnc2c(c1)C(=O)c1c-2n(CCCN2CCCC2)c(=O)c2cc([N+](=O)[O-])ccc12
GI50 (786-0 renal): 26.6 nM | TGI (786-0 renal): 152 nM | GI50 (A549 NSCLC): 46.3 nM | TGI (A549 NSCLC): 1150 nM | GI50 (ACHN renal): < 10 nM | TGI (ACHN renal): 132 nM | GI50 (BT-549 breast): 354 nM | TGI (BT-549 breast): 16 µM | GI50 (CAKI-1 renal): < 10 nM | TGI (CAKI-1 renal): 1460 nM | GI50 (CCRF-CEM leukemia): < 10 nM | TGI (CCRF-CEM leukemia): 3.77 µM | GI50 (COLO 205 colon): 35.4 nM | TGI (COLO 205 colon): 13.8 µM | GI50 (DU-145 prostate): 18.6 nM | TGI (DU-145 prostate): 1790 nM | GI50 (EKVX NSCLC): 297 nM | TGI (EKVX NSCLC): 12.3 µM | GI50 (HCC-2998 colon): 157 nM | TGI (HCC-2998 colon): 2530 nM | GI50 (HCT-116 colon): < 10 nM | TGI (HCT-116 colon): 144 nM | GI50 (HCT-15 colon): 61.6 nM | TGI (HCT-15 colon): 4.05 µM | GI50 (HL-60(TB) leukemia): 29.9 nM | TGI (HL-60(TB) leukemia): 1060 nM | GI50 (HOP-62 NSCLC): < 10 nM | TGI (HOP-62 NSCLC): 1240 nM | GI50 (HOP-92 NSCLC): 554 nM | TGI (HOP-92 NSCLC): 15.6 µM | GI50 (HS 578T breast): 1910 nM | TGI (HS 578T breast): 23.2 µM | GI50 (HT29 colon): 20.2 nM | TGI (HT29 colon): 1370 nM | GI50 (IGROV1 ovarian): 18.7 nM | TGI (IGROV1 ovarian): 1360 nM | GI50 (K-562 leukemia): 22.6 nM | TGI (K-562 leukemia): 1900 nM | GI50 (KM12 colon): 139 nM | TGI (KM12 colon): 1770 nM | GI50 (LOX IMVI melanoma): < 10 nM | TGI (LOX IMVI melanoma): 112 nM | GI50 (M14 melanoma): < 10 nM | TGI (M14 melanoma): 1010 nM | GI50 (MALME-3M melanoma): 55.8 nM | TGI (MALME-3M melanoma): 1150 nM | GI50 (MCF7 breast): < 10 nM | TGI (MCF7 breast): 1460 nM | GI50 (MDA-MB-231 breast): 683 nM | TGI (MDA-MB-231 breast): 2650 nM | GI50 (MDA-MB-435): 64.7 nM | TGI (MDA-MB-435): 1130 nM | GI50 (MOLT-4 leukemia): < 10 nM | TGI (MOLT-4 leukemia): 45.1 nM | GI50 (NCI-H226 lung): 104 nM | TGI (NCI-H226 lung): 715 nM | GI50 (NCI-H23 lung): 27.2 nM | TGI (NCI-H23 lung): 1250 nM | GI50 (NCI-H460 lung): < 10 nM | TGI (NCI-H460 lung): 116 nM | GI50 (NCI-H522 lung): 60.7 nM | TGI (NCI-H522 lung): 3.8 µM | GI50 (NCI/ADR-RES ovarian): 26 nM | TGI (NCI/ADR-RES ovarian): 1310 nM | GI50 (OVCAR-3 ovarian): 58.6 nM | TGI (OVCAR-3 ovarian): 901 nM | GI50 (OVCAR-4 ovarian): 84.8 nM | TGI (OVCAR-4 ovarian): 10.5 µM | GI50 (OVCAR-5 ovarian): 163 nM | TGI (OVCAR-5 ovarian): 1520 nM | GI50 (OVCAR-8 ovarian): 92.9 nM | TGI (OVCAR-8 ovarian): 5.85 µM | GI50 (PC-3 prostate): 66.2 nM | TGI (PC-3 prostate): 13.9 µM | GI50 (RPMI-8226 leukemia): 37.4 nM | TGI (RPMI-8226 leukemia): 1110 nM | GI50 (RXF 393 renal): 61.1 nM | TGI (RXF 393 renal): 533 nM | GI50 (SF-268 CNS): 19.1 nM | TGI (SF-268 CNS): 12.8 µM | GI50 (SF-295 CNS): < 10 nM | TGI (SF-295 CNS): 215 nM | GI50 (SF-539 CNS): 30.8 nM | TGI (SF-539 CNS): 353 nM | GI50 (SK-MEL-2 melanoma): 1010 nM | TGI (SK-MEL-2 melanoma): 15.9 µM | GI50 (SK-MEL-28 melanoma): 10.6 µM | TGI (SK-MEL-28 melanoma): 27.9 µM | GI50 (SK-MEL-5 melanoma): 67.1 nM | TGI (SK-MEL-5 melanoma): 322 nM | GI50 (SK-OV-3 ovarian): 33.6 nM | TGI (SK-OV-3 ovarian): 843 nM | GI50 (SN12C renal): 36 nM | TGI (SN12C renal): 15.3 µM | GI50 (SNB-19 CNS): 35.5 nM | TGI (SNB-19 CNS): 4.3 µM | GI50 (SNB-75 CNS): 45.7 nM | TGI (SNB-75 CNS): 14.3 µM | GI50 (SR leukemia): < 10 nM | TGI (SR leukemia): 1340 nM | GI50 (SW-620 colon): < 10 nM | TGI (SW-620 colon): 1340 nM | GI50 (T-47D breast): 17.9 nM | TGI (T-47D breast): 12.8 µM | GI50 (TK-10 renal): 373 nM | TGI (TK-10 renal): 14.1 µM | GI50 (U251 CNS): 11.3 nM | TGI (U251 CNS): 1030 nM | GI50 (UACC-257 melanoma): 176 nM | TGI (UACC-257 melanoma): 11 µM | GI50 (UACC-62 melanoma): 15.3 nM | TGI (UACC-62 melanoma): 631 nM | GI50 (UO-31 renal): < 10 nM | TGI (UO-31 renal): 206 nM

CC1=CCC2CC1C(C(=O)c1c[nH]c3ccccc13)=NC2(C)C (stereo unspecified)
TGI (786-0 renal): > 100000 nM | TGI (A498 renal): > 100 µM | TGI (A549 NSCLC): > 100000 nM | TGI (ACHN renal): > 100000 nM | TGI (BT-549 breast): > 100 µM | TGI (CAKI-1 renal): > 100000 nM | TGI (CCRF-CEM leukemia): > 100 µM | TGI (COLO 205 colon): > 100 µM | TGI (DU-145 prostate): > 100000 nM | TGI (EKVX NSCLC): > 100 µM | TGI (HCC-2998 colon): > 100000 nM | TGI (HCT-116 colon): > 100000 nM | TGI (HCT-15 colon): > 100 µM | TGI (HL-60(TB) leukemia): > 100000 nM | TGI (HOP-62 NSCLC): > 100000 nM | TGI (HS 578T breast): > 100 µM | TGI (HT29 colon): > 100000 nM | TGI (IGROV1 ovarian): > 100000 nM | TGI (K-562 leukemia): > 100000 nM | TGI (KM12 colon): > 100000 nM | TGI (LOX IMVI melanoma): > 100000 nM | TGI (M14 melanoma): > 100000 nM | TGI (MALME-3M melanoma): > 100000 nM | TGI (MCF7 breast): > 100000 nM | TGI (MDA-MB-231 breast): > 100000 nM | TGI (MDA-MB-435): > 100000 nM | TGI (MOLT-4 leukemia): > 100000 nM | TGI (NCI-H226 lung): > 100000 nM | TGI (NCI-H23 lung): > 100000 nM | TGI (NCI-H460 lung): > 100000 nM | TGI (NCI-H522 lung): > 100 µM | TGI (NCI/ADR-RES ovarian): > 100000 nM | TGI (OVCAR-3 ovarian): > 100000 nM | TGI (OVCAR-4 ovarian): > 100 µM | TGI (OVCAR-5 ovarian): > 100000 nM | TGI (OVCAR-8 ovarian): > 100 µM | TGI (PC-3 prostate): > 100 µM | TGI (RPMI-8226 leukemia): > 100000 nM | TGI (SF-268 CNS): > 100 µM | TGI (SF-539 CNS): > 100000 nM | TGI (SK-MEL-28 melanoma): > 100 µM | TGI (SK-MEL-5 melanoma): > 100000 nM | TGI (SK-OV-3 ovarian): > 100000 nM | TGI (SN12C renal): > 100 µM | TGI (SNB-19 CNS): > 100 µM | TGI (SR leukemia): > 100000 nM | TGI (SW-620 colon): > 100000 nM | TGI (T-47D breast): 99.2 µM | TGI (U251 CNS): > 100000 nM | TGI (UACC-257 melanoma): 93.4 µM | TGI (UACC-62 melanoma): > 100000 nM | TGI (UO-31 renal): > 100000 nM
